Patent US12544384B2, “Antibiotic conjugates” (priority 2018, dated 2026)
≈ marks a conversion by molar mass, not a printed value. Where two headings read alike, the source gives them in different places.

Experiments:
A. baumannii ATCC 17978 = test: MIC, antimicrobial susceptibility assay in iron depleted media; format: cell-based, Acinetobacter baumannii; conditions: for Antibacterial activity (in words): A. baumannii ATCC 17978, low amount of ADC-1; for MIC: Acinetobacter baumannii, ATCC17978, A. baumannii ATCC 17978, small amount of chromosomal ADC-1, iron depleted media, average of three measurements
Excerpt: (§1) For this purpose, A. baumannii ATCC 17978, which produces a small amount of the chromosomally-encoded enzyme, and the same strain that produces a large amount of ADC-1 from the pNT255 vector were used (Table 1).

[1] = test system: A. baumannii ATCC 17978 pNT255; test: MIC, antimicrobial susceptibility assay, strain with pNT255 vector; format: cell-based; conditions: Acinetobacter baumannii, ATCC17978, read-out: Activity (MIC)
Excerpt: as §1

[2] = test system: A. baumannii ATCC 17978 pNT225: ADC-1; test: MIC, antimicrobial susceptibility assay, strain with plasmid-encoded ADC-1 β-lactamase; format: cell-based, Acinetobacter baumannii; conditions: for MIC: Acinetobacter baumannii, ATCC17978, read-out: Activity (MIC)
Excerpt: as §1

A. baumannii ATCC 17961 = test: MIC against clinical isolate; format: cell-based, Acinetobacter baumannii; conditions: for MIC: Acinetobacter baumannii; for Antibacterial activity (in words): clinical isolate ATCC 17961
Method: (§2) Subsequently, the activities of the disclosed compounds were evaluated against four clinical isolates of A. baumannii (ATCC 17961, ATCC BAA1793, ATCC BAA1797 and ATTC BAA1800). All four A. baumannii isolates were resistant to compounds 3, 22, 23, and 27. Strain ATCC 17961 was susceptible to both 26 and 1, indicating lack of or low β-lactamase content and/or activity.

[3] = test system: A. baumannii ATCC BAA 1793; test: MIC against clinical isolate; format: cell-based, Acinetobacter baumannii; conditions: for MIC: Acinetobacter baumannii; for Antibacterial activity (in words): clinical isolate ATCC BAA1793
Method: as §2

[4] = test system: A. baumannii ATCC BAA 1797; test: MIC against clinical isolate; format: cell-based, Acinetobacter baumannii; conditions: for MIC: Acinetobacter baumannii; for Antibacterial activity (in words): clinical isolate ATCC BAA1797
Method: as §2

[5] = test system: A. baumannii ATCC BAA 1800; test: MIC against clinical isolate; format: cell-based, Acinetobacter baumannii; conditions: for MIC: Acinetobacter baumannii; for Antibacterial activity (in words): clinical isolate ATCC BAA1800
Method: as §2

E. coli DC0 = test: MIC against other Gram-negative bacteria; conditions: for Antibacterial activity (in words): Escherichia coli DC0; for MIC: Escherichia coli, DC0, read-out: Activity (MIC)
Method: (§3) This plasmid was then introduced by electroporation into A. baumannii ATCC 17978 for MIC measurements. MIC analyses were performed using iron depleted media as described previously (Ghosh, J. Med. Chem., 2017, 60, 4577-4583).

P. aeruginosa KW799/wt = test: MIC against other Gram-negative bacteria; conditions: for Antibacterial activity (in words): Pseudomonas aeruginosa KW799
Method: as §3

ADC-1 β-lactamase = test: Enzymatic hydrolysis by ADC-1, LC/MS; format: biochemical, A. baumannii; conditions: 20 μM compound, 20 μM ADC-1, 50 mM sodium phosphate pH 7.4, room temperature, 40 min
Method: With the final siderophore-cephalosporin-oxazolidinone conjugate (1) along with the separate cephalosporin and oxazolidinone conjugates (26 and 27) as well as the corresponding cephalosporin (23), oxazolidinone (3) and eperezolid (17) available, enzymatic and anti-bacterial assays were performed to test the susceptibility of conjugate (1) to the hydrolytic activity of β-lactamases from Gram-negative bacteria. Thus, assays were conducted to evaluate whether the oxazolidinone could be efficiently released from the final siderophore-cephalosporin-oxazolidinone conjugate (1) as a result of cephalosporin hydrolysis by a β-lactamase. For this purpose, one of the ADC-type β-lactamases (ADC-1) was chosen as ADC enzymes are intrinsic to A. baumannii, an important clinical pathogen, and are capable of hydrolyzing cephalosporin antibiotics.
The ADC-1 β-lactamase was expressed and purified as previously described (Bhattacharya et al., Acta Crystallogr., Sect. D: Biol. Crystallogr., 2014, 70, 760-771). Conjugate 1 (10 mM in DMSO) was diluted 5-fold in DMSO and then another 10-fold in 50 mM sodium phosphate, pH 7.4 to give a 200 μM solution with 10% DMSO. Subsequently, a 60 μL reaction was prepared consisting of 20 μM of 1 (6 μL of a 200 μM solution) and 20 μM ADC-1 β-lactamse (8.1 μL of 148 μM enzyme) in 50 mM sodium phosphate, pH 7.4 (the final concentration of DMSO was 1%). […]

[6] = test system: Mycobacterium tuberculosis (Mtb); conditions: background statement; cited from earlier work
[7] = ATCC17961, A. baumannii ATCC 17961, read-out: Activity (MIC)
[8] = BAA1793, A. baumannii ATCC BAA 1793, read-out: Activity (MIC)
[9] = BAA1797, A. baumannii ATCC BAA 1797, read-out: Activity (MIC)
[10] = BAA1800, A. baumannii ATCC BAA 1800, read-out: Activity (MIC)
[11] = Pseudomonas aeruginosa, KW799/WT, read-out: Activity (MIC)
[12] = ATCC17961, read-out: Activity (MIC)
[13] = BAA1793, read-out: Activity (MIC)
[14] = BAA1797, read-out: Activity (MIC)
[15] = BAA1800, read-out: Activity (MIC)

Structure (SMILES) | Antibacterial activity (in words) (A. baumannii ATCC 17978) | MIC (A. baumannii ATCC 17978) [µM] | MIC [1] [µM] | MIC [2] [µM] | Antibacterial activity (in words) (A. baumannii ATCC 17961) | Antibacterial activity (in words) [3] | Antibacterial activity (in words) [4] | Antibacterial activity (in words) [5] | Antibacterial activity (in words) (E. coli DC0) | MIC (E. coli DC0) [µM] | Antibacterial activity (in words) (P. aeruginosa KW799/wt) | MIC (P. aeruginosa KW799/wt; [11]) [µM] | MIC (A. baumannii ATCC 17961; [12]) [µM] | MIC [3, 13] [µM] | MIC [4, 14] [µM] | MIC [5, 15] [µM] | further results
CC(=O)NC[C@H]1CN(c2ccc(N3CCN(C(=O)CO)CC3)c(F)c2)C(=O)O1 [Compound 17, eperezolid, reference compound] | not active | > 50 | > 50 | > 50 | – | – | – | – | – | – | – | – | – | – | – | – | –
CC(=O)OCC1=C(C(=O)O)N2C(=O)[C@@H](NC(=O)C(NC(=O)CN(CCCCNC(=O)c3cccc(O)c3O)C(=O)c3cccc(O)c3O)c3ccccc3)[C@H]2SC1 (stereo partly drawn) [Compound 26, (6R,7R)-3-(Acetoxymethyl)-7-(2-(2-(N-(4-(2,3-dihydroxybenzamido)butyl)-2,3-dihydroxybenzamido)acetamido)-2-phenylacetamido)-8-oxo-5-thia-1-azabicyclo[4.2.0]oct-2-ene-2-carboxylic acid] | remarkably active | 0.4 (≈ 0.322 µg/mL) | 0.4 (≈ 0.322 µg/mL) | > 50 | susceptible | detectable activity | resistant | detectable activity | remarkably active | < 0.025 | remarkably active | 0.4 (≈ 0.322 µg/mL) | – | – | – | – | Antibacterial activity (in words) ([2]; A. baumannii with plasmid-encoded β-lactamase (pNT255:adc1)): highly resistant; MIC (A. baumannii ATCC 17961; [7]): 0.8 µM (≈ 0.645 µg/mL); MIC [3, 8]: 12.5 µM (≈ 10.1 µg/mL); MIC [4, 9]: > 50 µM; MIC [5, 10]: 25 µM (≈ 20.1 µg/mL); MIC (P. aeruginosa KW799/wt; vs P. aeruginosa KW799/wt): 0.4
CC(=O)NC[C@H]1CN(c2ccc(N3CCN(C(=O)CNC(=O)OCC4=C(C(=O)O)N5C(=O)[C@@H](NC(=O)C(N)c6ccccc6)[C@H]5SC4)CC3)c(F)c2)C(=O)O1 (stereo partly drawn) [Compound 22, (6R,7R)-3-((((2-(4-(4-((S)-5-(Acetamidomethyl)-2-oxooxazolidin-3-yl)-2-fluorophenyl)piperazin-1-yl)-2-oxoethyl)carbamoyl)oxy)methyl)-7-(2-amino-2-phenylacetamido)-8-oxo-5-thia-1-azabicyclo[4.2.0]oct-2-ene-2-carboxylic acid] | not active | > 50 | > 50 | > 50 | resistant | resistant | resistant | resistant | not active | > 50 | not active | > 50 | – | – | – | – | MIC (A. baumannii ATCC 17961; [7]): > 50 µM; MIC [3, 8]: > 50 µM; MIC [4, 9]: > 50 µM; MIC [5, 10]: > 50 µM
CC(=O)NC[C@H]1CN(c2ccc(N3CCN(C(=O)CNC(=O)OCC4=C(C(=O)O)N5C(=O)[C@@H](NC(=O)C(NC(=O)CN(CCCCNC(=O)c6cccc(O)c6O)C(=O)c6cccc(O)c6O)c6ccccc6)[C@H]5SC4)CC3)c(F)c2)C(=O)O1 (stereo partly drawn) [Compound 1, (6R,7R)-3-((((2-(4-(4-((S)-5-(Acetamidomethyl)-2-oxooxazolidin-3-yl)-2-fluorophenyl)piperazin-1-yl)-2-oxoethyl)carbamoyl)oxy)methyl)-7-(2-(2-(N-(4-(2,3-dihydroxybenzamido)butyl)-2,3-dihydroxybenzamido)acetamido)-2-phenylacetamido)-8-oxo-5-thia-1-azabicyclo[4.2.0]oct-2-ene-2-carboxylic acid] | similarly potent activity | 0.4 (≈ 0.473 µg/mL) | 0.4 (≈ 0.473 µg/mL) | 6 (≈ 7.1 µg/mL) | susceptible | very active | very active | very active | remarkably active | < 0.025 | remarkably active | 0.2 to 0.4 (≈ 0.237 to 0.473 µg/mL) | 0.8 (≈ 0.947 µg/mL) | 0.8 to 1.6 (≈ 0.947 to 1.89 µg/mL) | 6.25 (≈ 7.39 µg/mL) | 0.8 (≈ 0.947 µg/mL) | Decrease of MIC compared to the siderophore-cephalosporin ([2]; A. baumannii with plasmid-encoded β-lactamase, versus 26): at least 8 fold; Hydrolysis by purified ADC-1 and release of oxazolidinone (ADC-1 β-lactamase): rapid and complete hydrolysis and release of the oxazolidinone
CC(=O)NC[C@H]1CN(c2ccc(N3CCN(C(=O)CNC(=O)CN(CCCCNC(=O)c4cccc(O)c4O)C(=O)c4cccc(O)c4O)CC3)c(F)c2)C(=O)O1 [Compound 27, (S)—N-(2-((2-(4-(4-(5-(Acetamidomethyl)-2-oxooxazolidin-3-yl)-2-fluorophenyl)piperazin-1-yl)-2-oxoethyl)amino)-2-oxoethyl)-N-(4-(2,3-dihydroxybenzamido)butyl)-2,3-dihydroxybenzamide] | not active | > 50 | > 50 | > 50 | resistant | resistant | resistant | resistant | not active | > 50 | not active | > 50 | > 50 | > 50 | > 50 | > 50 | –
C[C@@H]1CC[C@H]2[C@@H](C)C(=O)O[C@@H]3O[C@@]4(C)CC[C@@H]1[C@]32OO4 [artemisinin] | – | – | – | – | – | – | – | – | – | – | – | – | – | – | – | – | Anti-tuberculosis activity (in words) [6]: no anti-tuberculosis activity
CC(=O)NC[C@H]1CN(c2ccc(N3CCN(C(=O)CN)CC3)c(F)c2)C(=O)O1 [Compound 3, (S)—N-((3-(3-Fluoro-4-(4-glycylpiperazin-1-yl)phenyl)-2-oxooxazolidin-5-yl)methyl)acetamide] | not active | > 500 | > 500 | > 500 | resistant | resistant | resistant | resistant | not active | > 50 | not active | > 50 | > 50 | > 50 | > 50 | > 50 | –
